The subject of series [1] is electrocardiogram. Description: Evaluation of electrocardiogram in a rat (under anesthesia). It is filed as in vivo. As for the experimental part: Under anesthesia, femoral artery was cannulated in a 7-11-week-old male SD rat (Charles River Laboratories Japan Inc.) that had been reared for more than one week, connected to a polygraph (NIHON KODEN) via a pressure transducer. Without consciousness, a vehicle (dimethylsulfoxide) or a test compound was intravenously administered. After the administration, blood pressure, the heart rate, and electrocardiogram were monitored for about 10 minutes.

The test system of series [2] is heart rate. Description: Evaluation of the heart rate in a rat (under consciousness). In kind it is in vivo. The note with it: vascular administration. As for the experimental part:
Under anesthesia, femoral artery was cannulated in a 7-11-week old male SD rat (Charles River Laboratories Japan Inc.) that had been reared for more than one week. Arterial cannula was connected to a pressure transducer, and under consciousness changes in the heart rate were monitored with a polygraph (Nihon Kohden) up to 4 hours after the vascular administration of the vehicle (10% PEG300-0.01M KOH saline) or the test compounds. The dose that lowered the heart rate by 20% was computed as TD20 (mg/kg body weight).

Series [3] deals with blood lymphocytic cells. Put plainly: Suppressive effect on circulating lymphocytic cells in a rat. In kind it is in vivo. The note with it: 6 hours after administration. The protocol:
Under anesthesia, a femoral artery was cannulated in a 7-11-week old male SD rat (Charles River Laboratories Japan Inc.) that had been reared for more than one week. A vehicle (in case of intravascular administration, 10% PEG300-0.01 M KOH saline was used, and in case of oral administration, 0.5% hydroxymethyl cellulose solution was used) or a test compound was administered intravascularly or by gavage administration. Right before the administration or 2, 4, 6 hours after the administration, the number of blood lymphocytic cells was counted by using an automated hematology analyzer XT-1800i or XT-2000i (Sysmex). The count of lymphocytic cells right before the administration was regarded as 100%, and the dose of the test compound that reduced blood lymphocytic cells by 50% of vehicle-treated group at the point of 6 hours after the administration was calculated as ED50 (mg/kg body weight).

Series [4] concerns electrocardiogram / monophasic action potential (MAP). Put plainly: Evaluation of cardiovascular system in a guinea pig. The note with it: anesthetized guinea pig, 0.1 mg/kg body weight, infusion. It is filed as in vivo. The source says: Under anesthesia with 0.5 to 1% of halothane, to a male Hartley guinea-pig (Japan SLC, Inc.) that had been reared for more than one week, a catheter for administration of a drug solution was placed into the left jugular vein, a monophasic action potential (MAP) measurement/pacing catheter was placed into the endothelial lining of the right ventricle, a catheter for measuring blood pressure was placed into the left carotid artery, and the measurement of body surface electrocardiogram (lead II) was conducted. The drug solution was infused for 10 minutes and the measurement was carried out over 60 minutes. Also, 5, 10, 15, 20, 30, 45 and 60 minutes after the administration of the drug solution, pacing was performed (200, 240, 300 bpm), and monophasic action potential (MAP) was measured.

Series [5] deals with enterobacterium. Description: Stability against enterobacterium (feces / cecum homogenates). It is filed as in vitro ADME. The note with it: cynomolgus monkey feces and rat cecum homogenates, 3 and 30 μM, 37° C., 24 hours; all conditions. As for the experimental part:
A culture medium was added to fresh feces of a cynomolgus monkey and rat cecum to prepare homogenates. To a homogenate was added the compound of the Example 2, or 1-{4-[5-(4-isopropoxyphenyl)-1,2,4-oxadiazol-3-yl]benzyl}azetidine-3-carboxylic acid (the compound of the Example 29 of Non-Patent Document 5) adjusted at a concentration of 3 and 30 μM, and the mixture was anaerobically cultured at 37° C. for 24 hours. After the cultivation, the concentration of the residual compound in the culture medium was measured on LC-MS.

The target of series [6] is T1, Human S1P1 receptor (Homo sapiens, UniProt P21453). Description: Agonist activity at an S1P1 receptor (reporter assay, EDG1-bla/U2OS cells). It is filed as cell-based. Further details: host or cells: U2OS (EDG1-bla/U2OS). The note with it: S1P maximum response = 100%. As for the experimental part:
Human S1P1 receptor gene recombinant EDG1-bla/U2OS cells (Life Technologies Japan Ltd.) were plated in a 96-well half-sized clear bottom black plate at a density of 10000 cells/32 μL/well, and then the plate was incubated at 37° C. in a 5% CO2 incubator for 48 hours. A culture medium containing each test compound prepared as a 5× concentrate was added at 8 μL/well, and the plate was incubated at 37° C. in a 5% CO2 incubator for 5 hours. The substrate (LiveBLAzer™-FRET B/G substrate (CCF4-AM), Life Technologies Japan Ltd.) prepared as a 6× concentrate was added at 8 μL into each well, and the plate was incubated at room temperature for 2 hours in the dark. The fluorescence intensity of each well was detected using a bottom-reading fluorescence microplate reader (EnVision: ParkinElmer) at one excitation wavelength and 2 wavelengths for fluorescence emission (Ex409 nm, Em460 nm, Em530 nm). The intensity ratio of fluorescence at 460 nm/530 nm was calculated for each well. The maximum response ratio confirmed from the dose response of SIP was expressed as 100%. The concentration of a test compound required to stimulate 50% of its maximal activation was computed as EC50 (nM).

Series [7] addresses T1, Human S1P1 receptor. Description: Agonist activity at an S1P1 receptor ([35S]-GTPγS exchange reaction, membrane fractions). It is filed as biochemical. The note with it: read-out: EC50, agonist activity at S1P1 receptor (GTP exchange reaction). As for the experimental part: (§1) By using membrane fractions prepared from a human S1P1 receptor expressing cells (Multispan Ltd.), the agonist activity of each test compound was measured by [^35S]-GTPγS exchange reaction in accordance with a standard procedure (Methods in Molecular Biology, Vol. 552, p 143-151 (2009)), and EC50 (nM) of each test compound was computed.

Series [8] addresses T2, Human S1P4 receptor (Homo sapiens, UniProt O95977).
T2 sequence (O95977 1-384): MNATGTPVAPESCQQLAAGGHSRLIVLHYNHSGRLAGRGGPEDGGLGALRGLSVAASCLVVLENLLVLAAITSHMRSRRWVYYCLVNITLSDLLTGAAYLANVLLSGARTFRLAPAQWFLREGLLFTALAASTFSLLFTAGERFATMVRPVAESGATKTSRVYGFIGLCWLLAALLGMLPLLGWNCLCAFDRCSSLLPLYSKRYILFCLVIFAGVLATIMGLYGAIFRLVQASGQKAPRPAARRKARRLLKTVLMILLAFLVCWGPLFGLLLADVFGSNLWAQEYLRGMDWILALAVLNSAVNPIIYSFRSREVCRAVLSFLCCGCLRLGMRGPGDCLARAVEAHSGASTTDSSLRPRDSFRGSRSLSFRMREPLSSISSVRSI
Description: Agonist activity at an S1P4 receptor (calcium influx). It is filed as cell-based. The note with it: at 1000 nM; read-out: activity at S1P4 receptor (elevation of intracellular calcium). As for the experimental part:
By using Human S1P4 receptor expressing cells (Multispan Inc. CG1052-1), the elevation of intracellular calcium concentration via agonist activity by the addition of 1000 nM was measured by Fret method (fluorescence resonance energy transfer).

In series [9] the target is Human S1P3 receptor (Homo sapiens, UniProt Q99500). Put plainly: Agonist activity at an S1P3 receptor ([35S]-GTPγS exchange reaction at 1000 nM). The note with it: read-out: percent of the maximal agonist activity at S1P3 receptor. It is filed as biochemical. As for the experimental part: as §1
By using membrane fractions prepared from Human S1P3 receptor expressing cells (Multispan Inc.), the agonist activity of the compound in the present invention was measured by a [^35S]-GTPγS exchange reaction at 1000 nM by the similar method of the Experimental Example 2.

The mark [10] stands for this setting: anesthetized rat, intravenous 0.1 mg/kg body weight.

Each structure is given as a SMILES string. Several values for one entry are separate records, joined by “and”; a condition that tells them apart may be missing. Identical values can stand only once.

T1 sequence (P21453 whole entry): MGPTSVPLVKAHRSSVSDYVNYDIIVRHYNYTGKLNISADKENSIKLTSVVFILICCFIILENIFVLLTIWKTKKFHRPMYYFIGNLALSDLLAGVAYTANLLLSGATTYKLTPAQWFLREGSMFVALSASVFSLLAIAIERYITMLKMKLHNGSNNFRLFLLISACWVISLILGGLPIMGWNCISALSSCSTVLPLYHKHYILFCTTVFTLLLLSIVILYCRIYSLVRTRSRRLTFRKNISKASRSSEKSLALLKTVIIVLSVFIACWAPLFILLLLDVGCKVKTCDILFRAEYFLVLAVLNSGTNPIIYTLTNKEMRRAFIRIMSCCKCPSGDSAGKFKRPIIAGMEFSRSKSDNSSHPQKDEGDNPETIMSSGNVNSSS
Sequence of Human S1P3 receptor (Q99500 whole entry): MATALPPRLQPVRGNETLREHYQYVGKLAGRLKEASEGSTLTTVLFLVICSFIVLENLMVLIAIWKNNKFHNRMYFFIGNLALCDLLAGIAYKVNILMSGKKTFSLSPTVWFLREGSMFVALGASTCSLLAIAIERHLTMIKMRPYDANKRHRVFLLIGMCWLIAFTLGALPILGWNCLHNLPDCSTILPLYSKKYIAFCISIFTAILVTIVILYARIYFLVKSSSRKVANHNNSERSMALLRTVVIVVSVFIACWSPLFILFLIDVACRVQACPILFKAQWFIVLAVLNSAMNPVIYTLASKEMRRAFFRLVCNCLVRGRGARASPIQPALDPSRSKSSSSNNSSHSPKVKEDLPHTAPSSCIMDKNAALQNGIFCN

As to `CCCCCCCCc1ccc(CCC(N)(CO)COP(=O)(O)O)cc1` (stereo not drawn) [phosphorylated form of Fingolimod], in series [1] (rat, in vivo, iv, 0.1 mg/kg), the “duration of continuous cardiac arrhythmia (AV block)” value was determined as 120 s.
As to `CCCCCCCCc1ccc(CCC(N)(CO)CO)cc1` [Fingolimod, reference compound], the “TD20, dose that lowered the heart rate by 20%” value in [2] (conscious rat) is on record as 0.3 mg/kg body weight. For the same molecule, the TD20/ED50 ratio in [2] (rat) is recorded as 5. Also, the “ED50, dose reducing blood lymphocytic cells by 50%” value in [3] (gavage administration) was found to be 0.2 mg/kg body weight. Besides, in series [3] (vascular administration), the “ED50, dose reducing blood lymphocytic cells by 50%” value is 0.06 mg/kg body weight. For the same molecule, in series [4], the MAP90 prolongation effect result is “recognized” and the “prolonged QT” value was “recognized”.
`CC(C)Oc1ccc(-c2nc(-c3ccc(CN4CC(C(=O)O)C4)cc3)no2)cc1` [1-{4-[5-(4-isopropoxyphenyl)-1,2,4-oxadiazol-3-yl]benzyl}azetidine-3-carboxylic acid]: in [5], the “residual compound after anaerobic culture with homogenate” value was at most 2%. Moreover, in [1] (setting [10]), the “cardiac arrest (cases)” value was 1 out of 3 and the “duration of continuous cardiac arrhythmia (AV block)” value turned out to be 170 s.
In the case of `CC(C)Oc1ccc(-c2cnc(-c3ccc(CN4CC(C(=O)O)C4)cc3F)s2)cc1Cl` [Example 11, 1-(4-(5-(3-chloro-4-isopropoxyphenyl)thiazol-2-yl)-3-fluorobenzyl)azetidine-3-carboxylic acid], the concentration for a half-maximal effect (EC50) in [6] is ≤ 1 nM and 0.076 nM; in [7] it was at most 10 nM. For the same molecule, the activation at 1 µM in series [8] was below 20%. Besides, the Emax at 1 µM in [9] was 20 to 50%.
Take `CC(C)c1ccc(-c2cnc(-c3ccc(CN4CC(C(=O)O)C4)cc3)s2)cc1` [Example 46, 1-(4-(5-(4-isopropylphenyl)thiazol-2-yl)benzyl)azetidine-3-carboxylic acid]: the figures for the concentration giving a half-maximal response (EC50) in [6] and in series [7] were at most 10 nM and at most 50 nM, respectively. In addition, the activation at 1 µM in series [8] is below 20%. In addition, the Emax at 1 µM in [9] is below 20%.
For `CC(C)Oc1ccc(-c2cnc(-c3ccc(CN4CC(C(=O)O)C4)cc3)s2)cc1F` [Example 53, 1-(4-(5-(3-fluoro-4-isopropoxyphenyl)thiazol-2-yl)benzyl)azetidine-3-carboxylic acid], the results for the EC50 in series [6] and in series [7] were at most 10 nM and at most 500 nM, respectively. Moreover, in series [8], the activation at 1 µM is below 20%. The Emax at 1 µM in [9] was in the range of 20 to 50%.
With `O=C(O)C1CN(Cc2ccc(-c3ncc(-c4ccc(C5CCCCC5)cc4)s3)cc2)C1` [Example 36, 1-(4-(5-(4-cyclohexylphenyl)thiazol-2-yl)benzyl)azetidine-3-carboxylic acid], the EC50 in [6] was at most 10 nM; in series [7], at most 100 nM. In addition, the activation at 1 µM in [8] is below 20%. Moreover, in series [9], the Emax at 1 µM is below 20%.
As to `CCOc1ccc(-c2cnc(-c3ccc(CN4CC(C(=O)O)C4)cc3)s2)cc1` [Example 31, 1-(4-(5-(4-ethoxyphenyl)thiazol-2-yl)benzyl)azetidine-3-carboxylic acid], the EC50 in [6] is at most 100 nM; in series [7], at most 50 nM. In addition, in series [8], the activation at 1 µM is below 20%. For the same molecule, the Emax at 1 µM in [9] was below 20%.

The values are drawn from patent US8895753B2, “S1P receptor modulating agent” (Meiji Seika Pharma Co., Ltd., priority 2011, dated 2014).
